The NIST ThermoML archive (doi:10.1016/j.jct.2012.12.007)
± gives the expanded uncertainty stated by the source.

Settings: 101.33 kPa, Liquid; for speed of sound: Sing-around technique in a fixed-path interferometer; for mass density: Vibrating tube method

Row | Compound | speed of sound (293.15 K) [m/s] | mass density (293.15 K) [kg/m3] | speed of sound (298.15 K) [m/s] | mass density (298.15 K) [kg/m3] | speed of sound (303.15 K) [m/s] | mass density (303.15 K) [kg/m3]
1 | CCOCCOCCOCC [diethylene glycol diethyl ether] | 1259.4 ± 1.2 | 906.73 ± 0.23 | 1239.9 ± 1.2 | 902.88 ± 0.23 | 1221.8 ± 1.2 | 897.22 ± 0.23
2 | CCCCCCCCCCO [decan-1-ol] | 1397.1 ± 1.2 | 829.95 ± 0.24 | 1380.3 ± 1.2 | 826.95 ± 0.24 | 1364.1 ± 1.2 | 823.15 ± 0.24
3 | CO [methanol] | 1118 ± 1 | 791.55 ± 0.12 | 1101.4 ± 0.6 | 787.2 ± 0.12 | 1086.6 ± 0.6 | 782.44 ± 0.12
4 | CCCCO [butan-1-ol] | 1256.2 ± 0.7 | 809.89 ± 0.12 | 1239.6 ± 0.7 | 806.47 ± 0.12 | 1223.8 ± 0.7 | 802.22 ± 0.12
